Experimental findings from patent US20200369728A1, “PEPTIDOMIMETIC MACROCYCLES AND USES THEREOF” (Aileron Therapeutics, Inc., priority 2015, published 2020) are described below.

Experiment [1] has as its system SJSA-1 cells. The experiment can be described thus: Cell lysis by peptidomimetic macrocycles (LDH release). Type of experiment: cell-based. Conditions: SJSA-1, 1 h. The method, boiled down: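 Membrane lysis measured as supernatant LDH after a 1 h, 37 °C exposure of SJSA-1 cells, held in RPMI with 1% FBS, to macrocycles at final 6.25-50 μM with 0.5% DMSO. Lytic references were 10 μM melittin and 1% Triton X-100; DMSO alone served as non-lytic control.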

Experiment [2] has as its system RKO. Nature of the experiment: Cell viability assay (MTT), RKO. Conditions: read-out: RKO EC50 (72 h).
The subject of experiment [3] is Caspase 3. The experiment can be described thus: Caspase 3 detection assay in SJSA1 cells. The format is cell-based. Conditions: SJSA1, 48 h, Caspase 3 activation over DMSO-treated cells.

Bridge positions count the residues as written; N and C are the ends. Square brackets hold non-standard residues; d marks the D form. Peptide text beside a SMILES is read from it. Trp(6-Cl) = N[C@@H](Cc1c[nH]c2cc(Cl)ccc12)C(=O)O; R8 = C=CCCCCCC[C@@](C)(N)C(=O)O; hLeu = CC(C)CC[C@H](N)C(=O)O; S5 = C=CCCC[C@](C)(N)C(=O)O

The term EC50 denotes the midpoint of the concentration-response curve. For the molecule `CC(=O)N[C@@H](CC(C)C)C(=O)N[C@H](C(=O)N[C@@H](Cc1ccccc1)C(=O)N[C@]1(C)CCCCCCC=CCCC[C@@](C)(C(=O)N[C@@H](CO)C(=O)N[C@@H](C)C(=O)N[C@@H](CC(C)C)C(N)=O)NC(=O)[C@H](CC(C)C)NC(=O)[C@H](CCC(N)=O)NC(=O)[C@H](C)NC(=O)[C@H](Cc2c[nH]c3ccccc23)NC(=O)[C@H](Cc2ccc(O)cc2)NC(=O)[C@H](C)NC1=O)[C@@H](C)O` [compound 4] (Ac-LTF[R8]AYWAQL[S5]SAL-NH2; staple 4-11), in experiment [1], the “6.25 μM % Lysed cells (1 h LDH)” value was −2%, the “25 μM % Lysed cells (1 h LDH)” value was found to be 1% and the “50 μM % Lysed cells (1 h LDH)” value amounted to 2%. Moreover, the EC50 in experiment [2] is less than 5 µM. Besides, in experiment [3], the “caspase 3 μM” value was found to be 9, the “caspase 10 μM” value was 37 and the “caspase 30 μM” value stood at 35.

Regarding `CC(=O)N[C@@H](CC(C)C)C(=O)N[C@H](C(=O)N[C@@H](Cc1ccccc1)C(=O)N[C@]1(C)CCCCCC/C=C/CCC[C@@](C)(C(=O)N[C@@H](CO)C(=O)N[C@@H](C)C(=O)N[C@@H](C)C(N)=O)NC(=O)[C@H](CC(C)C)NC(=O)[C@H](CCC(N)=O)NC(=O)[C@H](C)NC(=O)[C@H](Cc2c[nH]c3cc(Cl)ccc23)NC(=O)[C@H](Cc2ccc(O)cc2)NC(=O)[C@H](C)NC1=O)[C@@H](C)O` [compound 99] (Ac-LTF[R8]AY[Trp(6-Cl)]AQL[S5]SAA-NH2; staple (E) 4-11), in experiment [1], the “6.25 μM % Lysed cells (1 h LDH)” value came to 1.5%, the “25 μM % Lysed cells (1 h LDH)” value was 2% and the “50 μM % Lysed cells (1 h LDH)” value came to 3.5%. In addition, in experiment [2], the EC50 is less than 5 µM. In experiment [3], the “caspase 0.3 μM” value came to 1, the “caspase 3 μM” value came out at 7, the “caspase 10 μM” value was 31 and the “caspase 30 μM” value was 33.

With `CC(=O)N[C@@H](CC(C)C)C(=O)N[C@H](C(=O)N[C@@H](Cc1ccccc1)C(=O)N[C@]1(C)CCCCCC/C=C\CCC[C@@](C)(C(=O)N[C@@H](CO)C(=O)N[C@@H](C)C(=O)N[C@@H](C)C(N)=O)NC(=O)[C@H](CCC(C)C)NC(=O)[C@H](CCC(N)=O)NC(=O)[C@H](C)NC(=O)[C@H](Cc2c[nH]c3ccccc23)NC(=O)[C@H](Cc2ccc(O)cc2)NC(=O)[C@H](C)NC1=O)[C@@H](C)O` [compound 114] (Ac-LTF[R8]AYWAQ[hLeu][S5]SAA-NH2; staple (Z) 4-11), in experiment [1], the “6.25 μM % Lysed cells (1 h LDH)” value amounted to 3%, the “25 μM % Lysed cells (1 h LDH)” value is given as 4% and the “50 μM % Lysed cells (1 h LDH)” value is given as 9%. In experiment [2], the concentration for a half-maximal effect (EC50) is 5 to 15 µM. In experiment [3], the “caspase 0.3 μM” value came out at 1, the “caspase 3 μM” value is given as 6, the “caspase 10 μM” value was 28 and the “caspase 30 μM” value came to 34.

On to `CC(=O)N[C@@H](CC(C)C)C(=O)N[C@H](C(=O)N[C@@H](Cc1ccccc1)C(=O)N[C@]1(C)CCCCCC/C=C/CCC[C@@](C)(C(=O)N[C@@H](CO)C(=O)N[C@@H](C)C(=O)N[C@@H](C)C(N)=O)NC(=O)[C@H](CCC(C)C)NC(=O)[C@H](CCC(N)=O)NC(=O)[C@H](C)NC(=O)[C@H](Cc2c[nH]c3ccccc23)NC(=O)[C@H](Cc2ccc(O)cc2)NC(=O)[C@H](C)NC1=O)[C@@H](C)O` [compound 115] (Ac-LTF[R8]AYWAQ[hLeu][S5]SAA-NH2; staple (E) 4-11), for which, in experiment [1], the “6.25 μM % Lysed cells (1 h LDH)” value came out at 0%, the “25 μM % Lysed cells (1 h LDH)” value is given as −1% and the “50 μM % Lysed cells (1 h LDH)” value worked out at 6%. Also, in experiment [2], the concentration giving a half-maximal response (EC50) was 5 to 15 µM. Besides, in experiment [3], the “caspase 0.3 μM” value is 1, the “caspase 3 μM” value is 10, the “caspase 10 μM” value was 26 and the “caspase 30 μM” value worked out at 32.

In the case of `CC(=O)N[C@@H](CC(C)C)C(=O)N[C@H](C(=O)N[C@@H](Cc1ccccc1)C(=O)N[C@]1(C)CCCCCCC=CCCC[C@@](C)(C(=O)N[C@@H](CO)C(=O)N[C@H](C(=O)N[C@@H](CO)C(N)=O)C(C)C)NC(=O)[C@H](CC(C)C)NC(=O)[C@H](CCC(N)=O)NC(=O)[C@H](C)NC(=O)[C@H](Cc2c[nH]c3ccccc23)NC(=O)[C@H](Cc2ccc(O)cc2)NC(=O)[C@H](C)NC1=O)[C@@H](C)O` [compound 121] (Ac-LTF[R8]AYWAQL[S5]SVS-NH2; staple 4-11), in experiment [1], the “6.25 μM % Lysed cells (1 h LDH)” value is 1%, the “25 μM % Lysed cells (1 h LDH)” value was 1% and the “50 μM % Lysed cells (1 h LDH)” value was found to be 7%. In addition, the 50% effective concentration (EC50) in experiment [2] is less than 5 µM. Moreover, in experiment [3], the “caspase 0.3 μM” value worked out at 1, the “caspase 3 μM” value is 5, the “caspase 10 μM” value is recorded as 19 and the “caspase 30 μM” value amounted to 30.

As for `CC(=O)N[C@@H](CC(C)C)C(=O)N[C@H](C(=O)N[C@@H](Cc1ccccc1)C(=O)N[C@]1(C)CCCCCCC=CCCC[C@@](C)(C(=O)N[C@@H](CO)C(=O)N[C@@H](C)C(=O)N[C@@H](CO)C(N)=O)NC(=O)[C@H](CC(C)C)NC(=O)[C@H](CCC(N)=O)NC(=O)[C@H](C)NC(=O)[C@H](Cc2c[nH]c3ccccc23)NC(=O)[C@H](Cc2ccc(O)cc2)NC(=O)[C@H](C)NC1=O)[C@@H](C)O` [compound 122] (Ac-LTF[R8]AYWAQL[S5]SAS-NH2; staple 4-11), in experiment [1], the “6.25 μM % Lysed cells (1 h LDH)” value was found to be 1%, the “25 μM % Lysed cells (1 h LDH)” value was determined as 0% and the “50 μM % Lysed cells (1 h LDH)” value is listed as 6%. Also, in experiment [2], the EC50 was 5 to 15 µM. Further, in experiment [3], the “caspase 0.3 μM” value was 1, the “caspase 3 μM” value is given as 2, the “caspase 10 μM” value amounted to 15 and the “caspase 30 μM” value was determined as 30.

In the case of `CC(=O)N[C@@H](CCC(=O)O)C(=O)N[C@H](C(=O)N[C@@H](Cc1ccccc1)C(=O)N[C@]1(C)CCCCCCC=CCCC[C@@](C)(C(=O)N[C@@H](CO)C(=O)N[C@@H](C)C(=O)N[C@@H](C)C(N)=O)NC(=O)[C@H](CC(C)C)NC(=O)[C@H](CCC(N)=O)NC(=O)[C@H](C)NC(=O)[C@H](Cc2c[nH]c3ccccc23)NC(=O)[C@H](Cc2ccc(O)cc2)NC(=O)[C@H](C(C)C)NC1=O)[C@@H](C)O` [compound 125] (Ac-ETF[R8]VYWAQL[S5]SAA-NH2; staple 4-11), in experiment [1], the “6.25 μM % Lysed cells (1 h LDH)” value is given as 0%, the “25 μM % Lysed cells (1 h LDH)” value came to 0% and the “50 μM % Lysed cells (1 h LDH)” value came out at 2%. In addition, the concentration giving a half-maximal response (EC50) in experiment [2] was in the range of 5 to 15 µM. Besides, in experiment [3], the “caspase 0.3 μM” value is recorded as 1, the “caspase 3 μM” value worked out at 3, the “caspase 10 μM” value was 9 and the “caspase 30 μM” value turned out to be 29.

Regarding `CC(=O)N[C@@H](CCC(=O)O)C(=O)N[C@H](C(=O)N[C@@H](Cc1ccccc1)C(=O)N[C@]1(C)CCCCCCC=CCCC[C@@](C)(C(=O)N[C@@H](CO)C(=O)N[C@H](C(=O)N[C@@H](C)C(N)=O)C(C)C)NC(=O)[C@H](CC(C)C)NC(=O)[C@H](CCC(N)=O)NC(=O)[C@H](C)NC(=O)[C@H](Cc2c[nH]c3ccccc23)NC(=O)[C@H](Cc2ccc(O)cc2)NC(=O)[C@H](C(C)C)NC1=O)[C@@H](C)O` [compound 126] (Ac-ETF[R8]VYWAQL[S5]SVA-NH2; staple 4-11), in experiment [1], the “6.25 μM % Lysed cells (1 h LDH)” value came out at 1%, the “25 μM % Lysed cells (1 h LDH)” value stood at 1% and the “50 μM % Lysed cells (1 h LDH)” value is given as 1%. In addition, the EC50 in experiment [2] is greater than 30 µM. In experiment [3], the “caspase 0.3 μM” value is 1, the “caspase 3 μM” value was found to be 1, the “caspase 10 μM” value was determined as 6 and the “caspase 30 μM” value amounted to 30.

For the molecule `CC(=O)N[C@@H](CC(C)C)C(=O)N[C@H](C(=O)N[C@@H](Cc1ccc(F)c(F)c1)C(=O)N[C@]1(C)CCCCCC/C=C/CCC[C@@](C)(C(=O)N[C@@H](CO)C(=O)N[C@@H](C)C(=O)N[C@@H](C)C(N)=O)NC(=O)[C@H](CCC(C)C)NC(=O)[C@H](CCC(N)=O)NC(=O)[C@H](C)NC(=O)[C@H](Cc2c[nH]c3ccccc23)NC(=O)[C@H](Cc2ccc(O)cc2)NC(=O)[C@H](CCC(=O)O)NC1=O)[C@@H](C)O` [compound 160], in experiment [1], the “6.25 μM % Lysed cells (1 h LDH)” value is listed as −1%, the “25 μM % Lysed cells (1 h LDH)” value was −1% and the “50 μM % Lysed cells (1 h LDH)” value was 1%. For the same molecule, the EC50 in experiment [2] is greater than 30 µM. In experiment [3], the “caspase 0.3 μM” value came to 2, the “caspase 3 μM” value was 10, the “caspase 10 μM” value amounted to 16 and the “caspase 30 μM” value came to 31.

In the case of `CC(=O)N[C@@H](CCC(=O)O)C(=O)N[C@H](C(=O)N[C@@H](Cc1ccccc1)C(=O)N[C@]1(C)CCCCCCC=CCCC[C@@](C)(C(=O)N[C@@H](CO)C(=O)N[C@@H](C)C(=O)N[C@@H](C)C(N)=O)NC(=O)[C@H](CC(C)C)NC(=O)[C@H](CCC(N)=O)NC(=O)[C@H](C)NC(=O)[C@H](Cc2c[nH]c3ccccc23)NC(=O)[C@H](Cc2ccc(O)cc2)NC(=O)[C@H](CCC(=O)O)NC1=O)[C@@H](C)O` [compound 161] (Ac-ETF[R8]EYWAQL[S5]SAA-NH2; staple 4-11), in experiment [1], the “6.25 μM % Lysed cells (1 h LDH)” value is 1%, the “25 μM % Lysed cells (1 h LDH)” value was −1% and the “50 μM % Lysed cells (1 h LDH)” value came to 0%. Further, in experiment [2], the EC50 is greater than 30 µM. Also, in experiment [3], the “caspase 0.3 μM” value is 2, the “caspase 3 μM” value was found to be 8, the “caspase 10 μM” value turned out to be 14 and the “caspase 30 μM” value is listed as 22.
